Data reported in patent US8455548B2, “Method of treating sensorimotor disorders with alpha-2 adrenergic receptor agonists” (Allergan, Inc., priority 2007, dated 2013).
Marks after values point to notes of the source that are not given here.

Experiments:
[1] = tested on: amphetamine-induced stereotypy; assay: Amphetamine-induced stereotypy (open field locomotor behavior); assay type: in vivo, C57B/6 male mice; conditions: for AMBULATIONS: indicative of hyperactivity; for FINE MOVEMENTS: scored 60 min post-amphetamine, indicative of stereotypy; for inhibition of amphetamine-induced stereotypy (in words): high-dose psychostimulant administration
Experimental: C57B/6 male mice were placed in an open field apparatus and allowed to habituate for 15-30 minutes. Compounds A or B were administered PO at 0, +15, or +30 minutes relative to amphetamine (8 mg/kg) administration (Compound B was also administered 15 minutes pre-amphetamine), and locomotor behavior was scored for an additional 60 minutes post-amphetamine. Amphetamine was administered IP. Locomotion was separated into “fine movements” (indicative of stereotypy) and “ambulations” (indicative of hyperactivity).
Amphetamine induced stereotypy. C57B/6 male mice were placed in an open field apparatus and allowed to habituate for 15-30 minutes. Compounds A or B were administered at 0, +15, or +30 minutes relative to amphetamine (8 mg/kg) administration (Compound B was also administered 15 minutes pre-amphetamine), and locomotor behavior was scored for an additional 60 minutes post-amphetamine. Locomotion was separated into “fine movements” (indicative of stereotypy) and “ambulations” (indicative of hyperactivity).

[2] = tested on: PPI disrupted by psychostimulants; assay: Prepulse inhibition (PPI) of the startle response disrupted by psychostimulants; assay type: in vivo, Male Sprague-Dawley rats; conditions: for % PPI PP3: pre-pulse 3 dB above background; for % PPI PP6: pre-pulse 6 dB above background; for % PPI PP12: pre-pulse 12 dB above background
Experimental: Male Sprague-Dawley rats were treated with Drug 1 (IP) followed 20 minutes later by Drug 2 (IP or SC as indicated in the methods). Ten minutes following administration of Drug 2 (except in the case of apomorphine where animals were immediately tested post-apomorphine), rats were placed in the startle chamber and allowed 5 minutes to acclimate with 65-dB background white noise. The acclimation period was followed by a ˜15 minute test session during which time rats were presented with 40 ms 120 dB startle pulses alone or preceded 100 ms by a pre-pulse 3, 6, or 12 dB above background. These four types of active stimuli were presented in pseudorandom order along with no-stimulation trials to assess baseline activity throughout testing. An average of 20 s separated each trial type. The maximum startle magnitude was measured for every trial type. PPI for each animal was calculated as the percentage startle magnitude to the pre-pulse+pulse or no-stimulation trials relative to the pulse-alone startle magnitude. * and ** indicate differences relative to vehicle+vehicle-treated animals (P<0.05 and P<0.01, respectively).
Prepulse inhibition of the startle response. Sprague Dawley male rats (˜250 g-300 g) are used (n=8/group). Rats are administered drug 1 (vehicle, Compound A, Compound B, or clonidine) followed 20 minutes later by amphetamine (2 mg/kg, s.c.), apomorphine (0.5 mg/kg s.c), PCP (2 mg/kg i.p.) or vehicle (0.9% NaCl, s.c.). Either immediately (apomorphine) or 10 minutes (amphetamine, PCP, or vehicle) following injection of drug 2, animals are placed in the SR-Lab startle chamber (San Diego Instruments, San Diego Calif.). Each rat is acclimated to the chamber for 5 minutes with 65 dB background noise. This acclimation period is followed by a ˜15 minute PPI test session where rats are presented with 120 dB startle pulses without a pre-pulse or pulses preceded by a pre-pulse of 3, 6, or 12 dB above background noise. These active stimuli are presented in pseudorandom order along with no-sound trials, with an average of 20 sec separating each trial (range 5-27 seconds). A sensor in the chamber records the startle magnitude following all stimuli presented. % PPI represents the percentage startle magnitude to the pre-pulse+pulse or no-stim trials relative to the pulse-alone startle magnitude.
The alpha 2B compounds were administered i.p. or p.o., PCP was administered i.p., and apomorphine and amphetamine were administered s.c.

alpha-2A receptor = biological target: T1, alpha-2A receptor (Homo sapiens, UniProt P08913); assay: Alpha-adrenergic receptor activation (efficacy relative to brimonidine, e.g. RSAT); assay type: cell-based; conditions: lacks significant activity = less than 40% of the efficacy of brimonidine at the alpha-2A receptor subtype
T1 sequence (P08913 1-465): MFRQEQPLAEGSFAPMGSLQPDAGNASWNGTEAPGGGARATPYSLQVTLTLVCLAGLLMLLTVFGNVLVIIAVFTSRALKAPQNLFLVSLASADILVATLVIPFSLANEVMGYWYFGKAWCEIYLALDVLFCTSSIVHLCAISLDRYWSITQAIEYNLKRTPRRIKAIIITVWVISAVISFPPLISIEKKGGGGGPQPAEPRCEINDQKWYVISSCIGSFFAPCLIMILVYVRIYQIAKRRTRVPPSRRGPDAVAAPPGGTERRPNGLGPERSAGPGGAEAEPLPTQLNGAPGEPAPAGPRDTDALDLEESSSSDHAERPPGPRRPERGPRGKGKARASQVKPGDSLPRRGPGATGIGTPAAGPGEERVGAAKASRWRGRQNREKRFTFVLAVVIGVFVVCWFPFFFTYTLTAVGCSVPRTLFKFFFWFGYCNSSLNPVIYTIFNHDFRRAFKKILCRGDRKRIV
Text: The methods of the present invention use alpha-2 agonists lacking significant activity at the alpha-2A receptor subtype. An agonist lacks significant alpha-2A receptor activity if the agonist has less than 40% of the efficacy of brimonidine at the alpha-2A receptor subtype. Compounds of the invention include, therefore, alpha-2B receptor agonists lacking significant alpha-2A activity; alpha 2B/2C receptor agonists lacking significant alpha-2A activity; and alpha-2C receptor agonists lacking significant alpha-2A activity.
Efficacy, also known as intrinsic activity, is a measure of maximal receptor activation achieved by a compound and can be determined using any accepted assay of alpha-adrenergic receptor activation, such as a cAMP or Receptor Selection and Amplification Technology (RSAT). […]
The RSAT assay measures receptor-mediated loss of contact inhibition resulting in selective proliferation of receptor-containing cells in a mixed population of confluent cells. The increase in cell number is assessed with an appropriate detectable marker gene such as beta-galactosidase, if desired, in a high throughput or ultra high throughput assay format. […]
As an example, an RSAT assay can be performed essentially as follows. […] The EC50 and maximal effect (i.e., efficacy) of each drug at each receptor is determined.

[3] = compound PO at 0 min post-amphetamine (8 mg/kg IP)
[4] = compound PO at 15 min post-amphetamine (8 mg/kg IP)
[5] = compound PO at 30 min post-amphetamine (8 mg/kg IP)
[6] = Drug 1 30 ug/kg, Drug 2 Apo (0.5 mg/kg)
[7] = Drug 1 30 ug/kg, Drug 2 PCP (2 mg/kg)
[8] = Drug 1 100 ug/kg, Drug 2 Amph (2 mg/kg)
[9] = compound PO at -15 min relative to amphetamine (8 mg/kg IP)
[10] = Drug 1 10 ug/kg, Drug 2 Amph (2 mg/kg)
[11] = Drug 1 30 ug/kg, Drug 2 Amph (2 mg/kg)
[12] = Drug 1 0.03 mg/kg, Drug 2 Amph (2 mg/kg)

SMILES | AMBULATIONS [1, 3] | FINE MOVEMENTS [1, 3] | AMBULATIONS [1, 4] | FINE MOVEMENTS [1, 4] | AMBULATIONS [1, 5] | FINE MOVEMENTS [1, 5] | inhibition of amphetamine-induced stereotypy (in words) [1] | % PPI PP3 [2, 6] [%] | % PPI PP6 [2, 6] [%] | % PPI PP12 [2, 6] [%] | % PPI PP3 [2, 7] [%] | % PPI PP6 [2, 7] [%] | % PPI PP12 [2, 7] [%] | % PPI PP3 [2, 8] [%] | % PPI PP6 [2, 8] [%] | % PPI PP12 [2, 8] [%] | alpha-2A receptor activity (in words) (alpha-2A receptor) | other results
OCCNC(=S)NCc1cccc(Cl)c1F [Compound A] | 6338.0 ± 714.1 | 810.1 ± 112.5^⋄ | 14056.6 ± 708.7 | 1312.9 ± 205.2^⋄ | 7494.6 ± 612.3 | 2581.3 ± 359.1 | effectively inhibit stereotypy | 38.5 ± 7.7 | 53.8 ± 6.2 | 58.9 | 40.2 ± 7.5 | 50.6 ± 5.5 | 62.9 | 38.6 ± 7.1 | 50.2 ± 4.7 | 68.5 | lack significant alpha-2A receptor activity | restoration of PPI disrupted by psychostimulants (in words) ([2]; amphetamine, apomorphine, and phencyclidine): significantly inhibited the disruption of PPI
O=C1c2ccccc2CC[C@H]1Cc1c[nH]c(=S)[nH]1 [Compound B] | 9954.8 ± 1042.9 | 736.7 ± 103.4^⋄ | 7226.2 ± 457.3 | 1096.3 ± 79.2^⋄ | 8453.8 ± 461.7 | 1284.8 ± 48.8^⋄ | effectively inhibit stereotypy |  |  |  |  |  |  | 34.5 ± 5.7 | 45.3 ± 7.4 | 67.0 | lack significant alpha-2A receptor activity | AMBULATIONS [1, 9]: 7258.8 ± 672.4; FINE MOVEMENTS [1, 9]: 937.3 ± 47.3^⋄; % PPI PP3 [2, 10]: 28.2 ± 7.4%; % PPI PP6 [2, 10]: 30.9 ± 6.2%*; % PPI PP12 [2, 10]: 46.9%; % PPI PP3 [2, 11]: 25.3 ± 9.2%; % PPI PP6 [2, 11]: 48.6 ± 5.3%; % PPI PP12 [2, 11]: 60.0%
Clc1cccc(Cl)c1N=C1NCCN1 [Clonidine, reference compound] |  |  |  |  |  |  |  | 20.0 ± 10.6 | 31.5 ± 11.0 | 24.5 | 31.7 ± 13.5 | 30.1 ± 13.1 | 53.7 |  |  |  |  | % PPI PP3 [2, 12]: 21.8 ± 9.1%; % PPI PP6 [2, 12]: 35.5 ± 8.6%; % PPI PP12 [2, 12]: 51.3%
